In ChEMBL document CHEMBL1641381, “Rapid access to new bioconjugates of betulonic acid via click chemistry” (2011):

Experiments:
Type in all cases: functional
Mus musculus [1] = assay: Antioxidant activity agains CCl4-induced hepatitis mouse model assessed as TBARS level in serum at 20 mg/kg, po (untreated control = 100%)
Mus musculus [2] = assay: Antiinflammatory activity against histamine-induced mouse edema model assessed as inflammation index 20 mg/kg, po (untreated control = 32.6+/-3.1%)
Mus musculus [3] = assay: Antiinflammatory activity against histamine-induced mouse edema model assessed as edema size 20 mg/kg, po (untreated control = 100%)
Mus musculus [4] = assay: Antiinflammatory activity against histamine-induced mouse edema model assessed as edema size 50 mg/kg, po (untreated control = 100%)
Mus musculus [5] = assay: Antioxidant activity agains CCl4-induced hepatitis mouse model at 20 mg/kg, po (untreated control = 0%)
Mus musculus [6] = assay: Antiinflammatory activity against histamine-induced mouse edema model assessed as antiinflammatory effect 20 mg/kg, po (untreated control = 0%)
Mus musculus [7] = assay: Antiinflammatory activity against histamine-induced mouse edema model assessed as antiinflammatory effect 50 mg/kg, po (untreated control = 0%)
Mus musculus [8] = assay: Antiinflammatory activity against histamine-induced mouse edema model assessed as inflammation index 50 mg/kg, po (untreated control = 32.6+/-3.1%)

| Compound | Activity (Mus musculus [1]) [%] | Activity (Mus musculus [2]) [%] | level, % of control at 20 mg/kg (Mus musculus [3]) [%] | level, % of control at 50 mg/kg (Mus musculus [4]) [%] | Activity (Mus musculus [5]) [%] | Activity (Mus musculus [6]) [%] | Activity (Mus musculus [7]) [%] | Activity (Mus musculus [8]) [%] |
| --- | --- | --- | --- | --- | --- | --- | --- | --- |
| C=C(C)[C@@H]1CC[C@]2(C(=O)Nc3ccc(-c4cn(CCCCCC)nn4)cc3)CC[C@]3(C)[C@H](CC[C@@H]4[C@@]5(C)CCC(=O)C(C)(C)[C@@H]5CC[C@]43C)[C@@H]12 | 66 | 29 | 89 | 87.1 | 34 | 11 | 13 | 28.4 |
| C=C(C)[C@@H]1CC[C@]2(C(=O)Nc3ccc(-c4cn(-c5ccc(C(C)=O)cc5)nn4)cc3)CC[C@]3(C)[C@H](CC[C@@H]4[C@@]5(C)CCC(=O)C(C)(C)[C@@H]5CC[C@]43C)[C@@H]12 | 40 | 35.4 | 109 | 74.2 | 60 | 0 | 26 | 24.2 |
| C=C(C)[C@@H]1CC[C@]2(C(=O)Nc3ccc(-c4cn(-c5ccc(OC)cc5)nn4)cc3)CC[C@]3(C)[C@H](CC[C@@H]4[C@@]5(C)CCC(=O)C(C)(C)[C@@H]5CC[C@]43C)[C@@H]12 | 41 | 25.6 | 78.5 | 77.9 | 59 | 21 | 22 | 25.4 |
| C=C(C)[C@@H]1CC[C@]2(C(=O)Nc3ccc(-c4cn(Cc5ccccc5)nn4)cc3)CC[C@]3(C)[C@H](CC[C@@H]4[C@@]5(C)CCC(=O)C(C)(C)[C@@H]5CC[C@]43C)[C@@H]12 | 58 | 34.1 | 105 | 78.5 | 42 | 0 | 21 | 25.6 |
| O=C1c2c(O)cc(O)cc2O[C@H](c2ccc(O)c(O)c2)[C@H]1O [(+)-TAXIFOLIN] | 57 |  |  |  | 43 |  |  |  |
| COc1ccc2c(c1)c(CC(=O)O)c(C)n2C(=O)c1ccc(Cl)cc1 [INDOMETHACIN] |  | 12.2 | 37.4 |  |  | 63 |  |  |
